How the values were obtained:
Experiment in all cases: combination Emax (second highest fraction inhibited in the dose matrix, 72 h); higher = more inhibition; extreme values may be limits of the assay
[1] = tested on: KYSE-270 (Esophageal Squamous Cell Carcinoma)
Summary of the method: (§1)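 Cell lines in DMEM/F12 or RPMI with 10% FBS were plated in 1536-well plates, held 24 hours at 37°C, 5% CO2, then given two-drug dose matrices for 72 hours (DMSO typically 0.2%). Viability was read by CellTiter-Glo 2.0 luminescence and scaled as inhibition from 0 (vehicle wells) to 1 (blank wells). Combination Emax is the second-highest inhibition in the matrix; Bliss excess is observed combination effect minus expected EA + EB − EA·EB, EA and EB being single-agent effects.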

[2] = tested on: COR-L279 (Small Cell Lung Carcinoma)
Summary of the method: as §1

[3] = tested on: SK-GT-2 (Gastric Carcinoma)
Summary of the method: as §1

[4] = tested on: JHH-4 (Hepatocellular Carcinoma)
Summary of the method: as §1

[5] = tested on: KY821 (Acute Myeloid Leukemia)
Summary of the method: as §1

[6] = tested on: SK-GT-4 (Esophageal Adenocarcinoma)
Summary of the method: as §1

[7] = tested on: ST486 (Burkitt's Lymphoma)
Summary of the method: as §1

[8] = tested on: KMS-12-BM (Plasma Cell Myeloma)
Summary of the method: as §1

[9] = tested on: SU-DHL-5 (B-Cell Non-Hodgkin's Lymphoma)
Summary of the method: as §1

[10] = tested on: M059J (Glioblastoma)
Summary of the method: as §1

[11] = tested on: NCI-H2731 (Mesothelioma)
Summary of the method: as §1

[12] = tested on: 8505C (Thyroid Gland Carcinoma)
Summary of the method: as §1

[13] = tested on: KP-3 (Pancreatic Carcinoma)
Summary of the method: as §1

[14] = tested on: VMRC-RCZ (Kidney Carcinoma)
Summary of the method: as §1

[15] = tested on: NCI-H520 (Squamous Cell Lung Carcinoma)
Summary of the method: as §1

[16] = tested on: RD (Rhabdomyosarcoma)
Summary of the method: as §1

[17] = tested on: IM-95 (Gastric Carcinoma)
Summary of the method: as §1

[18] = tested on: MN-60 (B-Lymphoblastic Leukemia)
Summary of the method: as §1

[19] = tested on: NCI-H3122 (Lung Adenocarcinoma)
Summary of the method: as §1

[20] = tested on: NCI-H526 (Small Cell Lung Carcinoma)
Summary of the method: as §1

Row | Compound | combination Emax [1] | combination Emax [2] | combination Emax [3] | combination Emax [4] | combination Emax [5] | combination Emax [6] | combination Emax [7] | combination Emax [8] | combination Emax [9] | combination Emax [10] | combination Emax [11] | combination Emax [12] | combination Emax [13] | combination Emax [14] | combination Emax [15] | combination Emax [16] | combination Emax [17] | combination Emax [18] | combination Emax [19] | combination Emax [20]
1 | COc1nnc2ccc(N3CCC(c4ccc(OCCN5CCN(C)C(=O)[C@H]5C)cc4)CC3)nn12 [AZD5153] + CC1(C)CCC(CN2CCN(c3ccc(C(=O)NS(=O)(=O)c4ccc(NCC5CCOCC5)c([N+](=O)[O-])c4)c(Oc4cnc5[nH]ccc5c4)c3)CC2)=C(c2ccc(Cl)cc2)C1 [Venetoclax] (first compound max 1 µM, 7x7, partner max 1 µM) | 0.547 | 0.663 | 0.256 | 0.392 | 1 | 0.484 | 0.929 | 1 | 0.978 | 0.756 | 0.432 | 0.419 | 0.21 | 0.258 | 0.569 | 0.533 | 0.333 | 0.692 | 0.633 | 0.973
2 | Cn1cnc2c(F)c(Nc3ccc(Br)cc3Cl)c(C(=O)NOCCO)cc21 [Selumetinib] + C=CCn1c(=O)c2cnc(Nc3ccc(N4CCN(C)CC4)cc3)nc2n1-c1cccc(C(C)(C)O)n1 [AZD1775] (first compound max 10 µM, partner max 1 µM) | 0.723 | 0.432 | 0.652 | 0.728 | 1 | 0.528 | 0.978 | 0.916 | 0.984 | 0.262 | 0.194 | 0.425 | 0.274 | 0.258 | 0.295 | 0.669 | 0.453 | 0.282 | 0.78 | 0.69
3 | COc1nnc2ccc(N3CCC(c4ccc(OCCN5CCN(C)C(=O)[C@H]5C)cc4)CC3)nn12 [AZD5153] + C=CCn1c(=O)c2cnc(Nc3ccc(N4CCN(C)CC4)cc3)nc2n1-c1cccc(C(C)(C)O)n1 [AZD1775] (first compound max 1 µM, partner max 1 µM) | 0.656 | 0.899 | 0.755 | 0.56 | 1 | 0.6 | 0.985 | 1 | 1 | 0.668 | 0.535 | 0.574 | 0.4 | 0.489 | 0.811 | 0.774 | 0.5 | 0.748 | 0.707 | 0.947
4 | CC1(C)CCC(CN2CCN(c3ccc(C(=O)NS(=O)(=O)c4ccc(NCC5CCOCC5)c([N+](=O)[O-])c4)c(Oc4cnc5[nH]ccc5c4)c3)CC2)=C(c2ccc(Cl)cc2)C1 [Venetoclax] + C1CN(CCC1(C(=O)N[C@@H](CCO)C2=CC=C(C=C2)Cl)N)C3=NC=NC4=C3C=CN4 [Capivasertib] (first compound max 1 µM, 7x7, partner max 3 µM) | 0.711 | 0.418 | 0.162 | 0.119 | 1 | 0.484 | 0.759 | 1 | 0.915 | 0.396 | 0.27 | 0.139 | 0.137 | 0.206 | 0.609 | 0.198 | 0.398 | 0.293 | 0.362 | 0.769
5 | C=CCn1c(=O)c2cnc(Nc3ccc(N4CCN(C)CC4)cc3)nc2n1-c1cccc(C(C)(C)O)n1 [AZD1775] + O=C(c1cc(Cc2n[nH]c(=O)c3ccccc23)ccc1F)N1CCN(C(=O)C2CC2)CC1 [Olaparib] (first compound max 1 µM, partner max 10 µM) | 0.7 | 0.858 | 0.82 | 0.307 | 1 | 0.363 | 0.979 | 0.905 | 1 | 0.618 | 0.349 | 0.319 | 0.28 | 0.339 | 0.833 | 0.461 | 0.447 | 0.366 | 0.736 | 0.758
6 | CC1(C)CCC(CN2CCN(c3ccc(C(=O)NS(=O)(=O)c4ccc(NCC5CCOCC5)c([N+](=O)[O-])c4)c(Oc4cnc5[nH]ccc5c4)c3)CC2)=C(c2ccc(Cl)cc2)C1 [Venetoclax] + Cc1cc2ncnn2cc1Nc1ncc2c(n1)n(C1CCOCC1)c(=O)n2C [AZD7648] (first compound max 1 µM, 7x7, partner max 10 µM) | 0.675 | 0.372 | 0.155 | 0.208 | 0.956 | 0.374 | 0.69 | 1 | 0.687 | 0.279 | 0.157 | 0.187 | 0.13 | 0.112 | 0.54 | 0.183 | 0.155 | 0.299 | 0.387 | 0.657
7 | CC1(C)CCC(CN2CCN(c3ccc(C(=O)NS(=O)(=O)c4ccc(NCC5CCOCC5)c([N+](=O)[O-])c4)c(Oc4cnc5[nH]ccc5c4)c3)CC2)=C(c2ccc(Cl)cc2)C1 [Venetoclax] + COc1cc(Nc2ncc3c(n2)-c2ccc(Cl)cc2C(c2c(F)cccc2OC)=NC3)ccc1C(=O)O [Alisertib] (first compound max 1 µM, 7x7, partner max 10 µM) | 0.627 | 0.82 | 0.241 | 0.602 | 1 | 0.444 | 0.909 | 1 | 0.803 | 0.636 | 0.364 | 0.275 | 0.103 | 0.21 | 0.54 | 0.543 | 0.412 | 0.291 | 0.336 | 0.852
8 | CN(CCO)CC[C@H](CSc1ccccc1)Nc1ccc(S(=O)(=O)NC(=O)c2ccc(N3CCC([C@@H](O)c4ccccc4-c4ccc(Cl)cc4)CC3)cc2)cc1S(=O)(=O)C(F)(F)F [AZD4320] + Cn1cnc2c(F)c(Nc3ccc(Br)cc3Cl)c(C(=O)NOCCO)cc21 [Selumetinib] (first compound max 1 µM, 7x7, partner max 3 µM) | 0.389 | 0.997 | 0.241 | 0.326 | 1 | 0.624 | 0.866 | 1 | 0.962 | 0.3 | 0.22 | 0.475 | 0.198 | 0.238 | 0.203 | 0.904 | 0.876 | 0.321 | 0.538 | 0.984
9 | C=CCn1c(=O)c2cnc(Nc3ccc(N4CCN(C)CC4)cc3)nc2n1-c1cccc(C(C)(C)O)n1 [AZD1775] + C1CN(CCC1(C(=O)N[C@@H](CCO)C2=CC=C(C=C2)Cl)N)C3=NC=NC4=C3C=CN4 [Capivasertib] (first compound max 3 µM, partner max 3 µM) | 0.85 | 0.818 | 0.83 | 0.439 | 0.994 | 0.596 | 0.971 | 0.984 | 0.99 | 0.826 | 0.416 | 0.741 | 0.28 | 0.359 | 0.795 | 0.797 | 0.655 | 0.555 | 0.622 | 0.907
10 | CN(CCO)CC[C@H](CSc1ccccc1)Nc1ccc(S(=O)(=O)NC(=O)c2ccc(N3CCC([C@@H](O)c4ccccc4-c4ccc(Cl)cc4)CC3)cc2)cc1S(=O)(=O)C(F)(F)F [AZD4320] + Cc1cc2ncnn2cc1Nc1ncc2c(n1)n(C1CCOCC1)c(=O)n2C [AZD7648] (first compound max 1 µM, 7x7, partner max 10 µM) | 0.0273 | 0.976 | 0.245 | 0.233 | 1 | 0.321 | 0.959 | 1 | 0.797 | 0.386 | 0.117 | 0.484 | 0.0376 | 0.0798 | 0.541 | 0.61 | 0.6 | 0.226 | 0.305 | 0.908
11 | CC(=O)c1c(C)c2cnc(Nc3ccc(N4CCNCC4)cn3)nc2n(C2CCCC2)c1=O [Palbociclib] + CC1(C)CCC(CN2CCN(c3ccc(C(=O)NS(=O)(=O)c4ccc(NCC5CCOCC5)c([N+](=O)[O-])c4)c(Oc4cnc5[nH]ccc5c4)c3)CC2)=C(c2ccc(Cl)cc2)C1 [Venetoclax] (first compound max 10 µM, 7x7, partner max 1 µM) | 0.125 | 0.375 | 0.0922 | 0.328 | 1 | 0.216 | 0.581 | 1 | 1 | 0.0491 | 0.211 | 0.047 | 0.0792 | 0.105 | 0.628 | 0.331 | 0.105 | 0.422 | 0.572 | 0.71
12 | Cc1c2c(nn1C)CSCc1cc(n(C)n1)CSc1cc(c3ccccc3c1)OCCCc1c(C(=O)O)n(C)c3c-2c(Cl)ccc13 [AZD5991] + CC1(C)CCC(CN2CCN(c3ccc(C(=O)NS(=O)(=O)c4ccc(NCC5CCOCC5)c([N+](=O)[O-])c4)c(Oc4cnc5[nH]ccc5c4)c3)CC2)=C(c2ccc(Cl)cc2)C1 [Venetoclax] (first compound max 1 µM, 7x7, partner max 1 µM) | 0.822 | 0.244 | 0.198 | 0.265 | 1 | 0.2 | 0.974 | 1 | 1 | 0.347 | 0.0671 | 0.135 | 0.129 | 0.21 | 0.201 | 0.553 | 0.837 | 0.323 | 0.275 | 1
